Experimental findings from ChEMBL document CHEMBL1130907, “The novel cyclopropapyrroloindole(CPI) bisalkylators bearing 3,3'-(1,4-phenylene)diacryloyl group as a linker” (Bioorg Med Chem Lett, 1998) are described below.

Experiment [1] is described as follows: Ratio of MTD, maximum dose with in 10% body weight loss (ug/Kg) to that of TGI50 was reported. It counts as functional.
In experiment [2] the test system is HeLa. Nature of the experiment: In vitro cytotoxicity against HeLaS3 human uterine cervix carcinoma. It counts as functional, cell-based.
In experiment [3] the test system is Mus musculus. The experiment can be described thus: In vivo antitumor activity against colon 26 murine adenocarcinoma in male CDF1 mice and was expressed as 50% tumor growth inhibition. It counts as functional.
Experiment [4] relates to HeLa. The experiment can be described thus: In vitro cytotoxicity against HeLaS3 human uterine cervix carcinoma. It counts as functional, cell-based.
The mark [5] stands for this setting: Homo sapiens, HeLa, read-out: IC50.

Converted amounts (≈) assume the structure as drawn.

The term IC50 denotes the midpoint of a concentration-inhibition curve. Consider `Cc1c[nH]c2c(O)cc3c(c12)[C@H](CCl)CN3C(=O)/C=C/c1ccc(/C=C/C(=O)N2C[C@H](CCl)c3c2cc(O)c2[nH]cc(C)c32)cc1`, for which the Ratio in experiment [1] was determined as 5.5. The IC50 in experiment [2] (hela) turned out to be 0.0013 ng/mL (≈ 0.00198 nM). In experiment [3], this molecule came in with a TGI50 of 1.41 µg/kg.

In the case of `COC(=O)c1c(C)[nH]c2c(O)cc3c(c12)[C@H](CCl)CN3C(=O)/C=C/c1ccc(/C=C/C(=O)N2C[C@H](CCl)c3c2cc(O)c2[nH]c(C)c(C(=O)OC)c32)cc1`, the Ratio in experiment [1] came to 8.8. Also, the TGI50 in experiment [3] is 0.891 µg/kg. This molecule yielded an IC50 in experiment [4] of 0.00046 ng/mL (≈ 0.000596 nM).

Regarding `COC(=O)c1cc2c3c(cc(O)c2[nH]1)N(C(=O)/C=C/c1ccc(/C=C/C(=O)N2C[C@H](CCl)c4c2cc(O)c2[nH]c(C(=O)OC)cc42)cc1)C[C@H]3CCl`, the IC50 in experiment [2] (setting [5]) amounted to 0.023 ng/mL (≈ 0.0309 nM). Also, in experiment [3], the TGI50 worked out at 100 µg/kg.

With `COC(=O)c1c[nH]c2c(O)cc3c(c12)[C@H](CCl)CN3C(=O)/C=C/c1ccc(/C=C/C(=O)N2C[C@H](CCl)c3c2cc(O)c2[nH]cc(C(=O)OC)c32)cc1`, the Ratio in experiment [1] is 10.3. In addition, in experiment [3], the TGI50 came to 0.757 µg/kg. In experiment [4], this molecule came in with a concentration for half-maximal inhibition (IC50) of 0.00035 ng/mL (≈ 0.000471 nM).

As for `COC(=O)c1c(C(F)(F)F)[nH]c2c(O)cc3c(c12)[C@H](CCl)CN3C(=O)c1cc2cc(-c3ccc4[nH]c(C(=O)N5C[C@@H](CCl)c6c5cc(O)c5[nH]c(C(F)(F)F)c(C(=O)OC)c65)cc4c3)ccc2[nH]1`, the Ratio in experiment [1] is 3.3. Further, the IC50 in experiment [2] (hela) is 0.0049 ng/mL (≈ 0.00499 nM). The molecule further registered a TGI50 in experiment [3] of 0.3 µg/kg.

In the case of `Cc1c[nH]c2c(O)cc3c(c12)[C@H](CCl)CN3C(=O)c1cc2cc(NC(=O)Nc3ccc4[nH]c(C(=O)N5C[C@@H](CCl)c6c5cc(O)c5[nH]cc(C)c65)cc4c3)ccc2[nH]1` [BIZELESIN], the Ratio in experiment [1] is listed as 8.4. Besides, the TGI50 in experiment [3] stood at 3.72 µg/kg.

Regarding `O=C(/C=C/c1ccc(/C=C/C(=O)N2C[C@H](CCl)c3c2cc(O)c2[nH]c4ccccc4c32)cc1)N1C[C@@H](CCl)c2c1cc(O)c1[nH]c3ccccc3c21`, the Ratio in experiment [1] is reported as 8.2. The IC50 in experiment [2] (setting [5]) came out at 0.072 ng/mL (≈ 0.0989 nM). For the same molecule, the TGI50 in experiment [3] turned out to be 3.8 µg/kg.

Regarding `COC(=O)c1c(C(F)(F)F)[nH]c2c(O)cc3c(c12)[C@H](CCl)CN3C(=O)/C=C/c1ccc(/C=C/C(=O)N2C[C@H](CCl)c3c2cc(O)c2[nH]c(C(F)(F)F)c(C(=O)OC)c32)cc1`, in experiment [1], the Ratio stood at 30.7. In experiment [2] (hela), this molecule registered an IC50 of 0.0027 ng/mL (≈ 0.00307 nM). This molecule yielded a TGI50 in experiment [3] of 0.254 µg/kg.
